Laboratory results reported in US20140147431A1, “Compositions and Methods for Modulating Desnutrin-Mediated Adipocyte Lipolysis” (The Regents of the University of California, priority 2010, published 2014).

How the values were obtained:
[1] = test system: HEK 293 cells transfected with wild type desnutrin-HA-GFP; experiment: Glycerol release (lipolysis) from oleate loaded HEK 293 cells transfected with wild type desnutrin-HA-GFP; type: cell-based; settings: treated with AICAR vs without
Method: (§1) Gonadal fat pads or BAT from overnight fasted mice were cut into 50 mg samples and incubated at 37° C. without shaking in […] of Krebs-Ringer buffer (12 mM HEPES, 121 mM NaCl, 4.9 mM KCl, 1.2 mM MgSO4 and 0.33 mM CaCl2) containing 2% fatty acid free bovine serum albumin (BSA) and 0.1% glucose with or without 10 μM isoproterenol. Fatty acid (FA) and glycerol release were measured in aliquots from incubation buffer using the NEFA C Kit (Wako) and Free Glycerol Reagent (Sigma), respectively. […] Glycerol and fatty acid were determined using the kits described above.
(§2) The role of AMPK in lipolysis is controversial, with several reporting AMPK stimulates lipolysis and others showing it inhibits lipolysis, via phosphorylation of HSL at S563 (Daval et al., 2005; Koh et al., 2007; Lage et al., 2008; Yin et al., 2003). To determine the effect of AMPK specifically on desnutrin-mediated Lipolysis, oleate loaded HEK 293 cells, transfected with wild type desnutrin-HA-GFP, mutant S406A-desnutrin-HA-GFP or GFP control, were treated with the cell-permeable AMPK-activator, 5-amino-4-imidazolecarboxamide riboside (AICAR), and lipolysis was determined by measuring glycerol release. […] To test the effect of AMPK on lipolysis in vivo, AICAR was administered intraperitoneally to flox/flox and desnutrin-ASKO mice and then measured serum FA levels. […]

[2] = test system: HEK 293 cells transfected with mutant S406A-desnutrin-HA-GFP; experiment: Glycerol release (lipolysis) from oleate loaded HEK 293 cells transfected with mutant S406A-desnutrin-HA-GFP; type: cell-based; settings: treated with AICAR vs without
Method: as §1, §2

AMPK = experiment: Effect of AMPK activation on lipolysis in vivo: serum FA levels after intraperitoneal AICAR; design: species or system mice; settings: five hours after injection
Method: Fasting serum triglycerides and FAs were analyzed with Infinity Triglyceride reagent (Thermo Trace) and NEFA C kit (Wako), respectively. Serum insulin, were determined using enzyme-linked immunosorbent assay kits (Alpco).
The role of AMPK in lipolysis is controversial, with several reporting AMPK stimulates lipolysis and others showing it inhibits lipolysis, via phosphorylation of HSL at S563 (Daval et al., 2005; Koh et al., 2007; Lage et al., 2008; Yin et al., 2003). To determine the effect of AMPK specifically on desnutrin-mediated Lipolysis, oleate loaded HEK 293 cells, transfected with wild type desnutrin-HA-GFP, mutant S406A-desnutrin-HA-GFP or GFP control, were treated with the cell-permeable AMPK-activator, 5-amino-4-imidazolecarboxamide riboside (AICAR), and lipolysis was determined by measuring glycerol release. […] To test the effect of AMPK on lipolysis in vivo, AICAR was administered intraperitoneally to flox/flox and desnutrin-ASKO mice and then measured serum FA levels. […] Therefore, AMPK phosphorylates desnutrin to increase lipolysis and promote FA oxidation in adipocytes.
FIGS. 3A-N. Desnutrin ablation converts BAT to WAT, and phosphorylation of desnutrin by AMPK increases lipolysis. […] I) FA oxidation, measured by ^14CO2 production from [U^14C] palmitate, from isolated brown adipocytes (left) and white adipocytes (right) from flox/flox and desnutrin-ASKO mice (n=4). […]

β3 adrenergic receptors = target: T1, β3 adrenergic receptors (Mus musculus, UniProt P25962); experiment: Oxygen consumption (VO2) by indirect calorimetry after injection of β3-agonist; type: in vivo, mice; settings: intraperitoneal injection 1 mg/kg body weight
T1 construct: endogenous in cells; host or cells: living flox/flox and desnutrin-ASKO mice (whole animal)
T1 sequence (P25962 whole entry): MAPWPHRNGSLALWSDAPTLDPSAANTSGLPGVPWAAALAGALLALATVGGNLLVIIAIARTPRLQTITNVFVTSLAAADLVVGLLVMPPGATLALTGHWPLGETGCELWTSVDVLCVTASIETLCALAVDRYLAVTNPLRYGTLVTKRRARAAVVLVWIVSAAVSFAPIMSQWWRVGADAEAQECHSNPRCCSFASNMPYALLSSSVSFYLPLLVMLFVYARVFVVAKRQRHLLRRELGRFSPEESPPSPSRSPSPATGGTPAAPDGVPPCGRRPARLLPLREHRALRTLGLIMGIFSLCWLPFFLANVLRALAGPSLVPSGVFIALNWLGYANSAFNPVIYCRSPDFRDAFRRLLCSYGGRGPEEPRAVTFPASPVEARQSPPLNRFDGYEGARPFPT
Method: Oxygen consumption (VO2) was measured using the Comprehensive Laboratory Animal Monitoring System (CLAMS; Columbus Instruments). Data were normalized to body weights. Body temperatures were assessed in 25 wk-old male mice using a RET-3 rectal probe for mice (Physitemp). […] was intraperitoneally injected into mice at 1 mg/kg body weight.
Oxygen consumption (VO2) was measured using the Comprehensive Laboratory Animal Monitoring System (CLAMS: Columbus Instruments). Data were normalized to body weights. Body temperatures were assessed using a RET-3 rectal probe for mice (Physitemp).
Since lipolysis and FAs are critical for thermogenesis, it was predicted that the severely blunted lipolysis in desnutrin-ASKO mice, would lead to impaired thermogenesis. Desnutrin-ASKO mice and flox/flox littermates were subjected to cold stress. […] To test this, a β3-agonist, […], was injected into desnutrin-ASKO and flox/flox mice and oxygen consumption was monitored.
FIGS. 2A-G. Decreased lipolysis in desnutrin-ASKO mice results in impaired thermogenesis and energy expenditure. […] F) Oxygen consumption rate (VO2) measured through indirect calorimetry. G) Oxygen consumption rate (VO2) measured through indirect calorimetry after intraperitoneal injection of CL316243. […]

[3] = target: wild type desnutrin-HA-GFP (murine) (UniProt Q8BJ56); experiment: cell-based or functional assay
wild type desnutrin-HA-GFP (murine), sequence (Q8BJ56 whole entry): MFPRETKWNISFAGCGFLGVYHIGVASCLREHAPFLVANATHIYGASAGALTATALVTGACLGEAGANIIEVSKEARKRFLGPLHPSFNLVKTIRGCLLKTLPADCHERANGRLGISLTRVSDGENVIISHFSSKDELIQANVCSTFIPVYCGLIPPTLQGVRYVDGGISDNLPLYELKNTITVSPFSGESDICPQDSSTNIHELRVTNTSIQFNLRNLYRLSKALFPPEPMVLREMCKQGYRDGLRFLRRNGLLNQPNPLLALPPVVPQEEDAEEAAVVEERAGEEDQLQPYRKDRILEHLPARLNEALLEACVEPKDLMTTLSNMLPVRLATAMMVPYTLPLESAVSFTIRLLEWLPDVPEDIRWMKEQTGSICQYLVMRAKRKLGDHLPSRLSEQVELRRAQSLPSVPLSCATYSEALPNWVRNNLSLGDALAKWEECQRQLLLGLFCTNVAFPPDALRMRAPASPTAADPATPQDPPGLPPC

## NC(=O)c1ncn([C@@H]2O[C@H](CO)[C@@H](O)[C@H]2O)c1N [AICAR, 5-amino-4-imidazolecarboxamide riboside]
[1]
  increase in glycerol release: 1.8 fold
[2]
  increase in glycerol release: failed to do so
AMPK; desnutrin-ASKO mice
  serum FA levels: serum FA levels were unchanged
AMPK; flox/flox mice
  serum FA levels: increased serum FA levels

## C[C@H](Cc1ccc2c(c1)OC(C(=O)O)(C(=O)O)O2)NC[C@H](O)c1cccc(Cl)c1 [CL31624]
β3 adrenergic receptors; desnutrin-ASKO mice
  oxygen consumption: no change in oxygen consumption
β3 adrenergic receptors; flox/flox mice
  metabolic rate as indicated by oxygen consumption: drastic increase in their metabolic rate

## AMPK of HEK 293 cells, activated by AICAR
[3]
  glycerol release from oleate loaded HEK 293 cells treated with AICAR: 1.8 fold
